From patent publication US11787839B2, “Targeting α2δ-1-bound glutamate receptors for treating diseases and disorders” (Board of Regents, The University of Texas System, priority 2017, dated 2023)

Legend:
[1] = target: presynaptic NMDARs of spinal lamina II neurons (Rattus norvegicus, UniProt P35439+Q00959+Q00960)
WT mice = test: Paclitaxel-induced pain hypersensitivity in mice; format: in vivo, mouse
Description: To induce neuropathic pain, rats and mice were intraperitoneally injected with paclitaxel (2 mg/kg; TEVA Pharmaceuticals, North Wales, Pa.) every 2 days for a total of 4 injections (days 1, 3, 5 and 7; total dose, 8 mg/kg), as described previously (Polomano et al., 2001). Animals in the control group were intraperitoneally injected with the vehicle (Cremophor EL/ethanol, 1:1) on the same 4 days. The presence of tactile allodynia was confirmed 10 to 12 days after drug treatment. Intrathecal catheters were implanted in some paclitaxel-treated rats during isoflurane-induced anesthesia. […]
(§1) To assess the thermal sensitivity of rats, the were placed individually on the glass surface of a thermal testing apparatus (IITC Life Sciences, Woodland Hills, Calif.). […] The paw withdrawal latency was recorded with a timer, and the hindpaw was tested twice to obtain an average time. […] After the threshold temperature was recorded, the mice were immediately removed from the plate. The heat threshold measurement was repeated 30 min later, and the average of the 2 recorded temperatures was considered as the heat threshold. The cold threshold was measured by cooling the plate from 30° C. at a rate of 6° C./min until nocifensive behaviors were observed. […]

α2δ-1 = α2δ-1 expression, α2δ-1-GluN1 complex and synaptosomal proteins after paclitaxel; format: in vivo, rat; conditions: paclitaxel- vs vehicle-treated rats
Description: (§2) To induce neuropathic pain, rats and mice were intraperitoneally injected with paclitaxel (2 mg/kg; TEVA Pharmaceuticals, North Wales, Pa.) every 2 days for a total of 4 injections (days 1, 3, 5 and 7; total dose, 8 mg/kg), as described previously (Polomano et al., 2001). Animals in the control group were intraperitoneally injected with the vehicle (Cremophor EL/ethanol, 1:1) on the same 4 days. The presence of tactile allodynia was confirmed 10 to 12 days after drug treatment. Intrathecal catheters were implanted in some paclitaxel-treated rats during isoflurane-induced anesthesia. Briefly, a small puncture was made in the atlanto-occipital membrane of the cisterna magna and inserted a PE-10 catheter with the caudal tip reaching the lumbar enlargement of the spinal cord (Chen et al., 2014a; Xie et al., 2016).
Quantitative PCR: Rats were deeply anesthetized with 5% isoflurane, and the DRG and dorsal half of spinal cord tissues at the L5 and L6 levels were removed. Total RNA was extracted from the DRG and spinal cord tissues using TRIsure (Cat. #BIO-38032, Bioline, Taunton, Mass.). After treatment with RNase-free DNase (Cat. #79254, QIAGEN, Hilden, Germany), 500 ng RNA was used for reverse transcription with a RevertAid RT Reverse Transcription Kit (Cat. #K1619, Thermo Fisher Scientific, Waltham, Mass.). One μL of 5-times diluted cDNA was added to a 10-μL reaction volume with SYBR Green Real-Time PCR Mix (Cat. #A25780, Thermo Fisher Scientific). Real-time PCR was performed using a QuantStudio 7 Flex Real-Time PCR System (Applied Biosystems, Waltham, Mass.). The thermal cycling conditions used were: 1 cycle at 95° C. for 10 min, 40 cycles at 95° C. for 15 s, and 60° C. for 60 s. The following primers were used: α2δ-1 forward, […] (SEQ ID NO:60); α2δ-1 reverse, […] (SEQ ID NO:61); α2δ-2 forward, […] (SEQ ID NO:62); α2δ-2 reverse, […] (SEQ ID NO:63); α2δ-3 forward, […] (SEQ ID NO:64); α2δ-3 reverse, […] (SEQ ID NO:65); Gapdh forward, […] (SEQ ID NO:66); Gapdh reverse. […] (SEQ ID NO:67). Relative mRNA levels were calculated using the 2−ΔΔCT method and normalized to the Gapdh level in the same sample.
Coimmunoprecipitation using spinal cord tissue membrane extracts: Tissues from the dorsal halves of the rat spinal cord at the L5 and L6 levels were collected under isoflurane anesthesia and homogenized in ice-cold hypotonic buffer (20 mM Tris [pH 7.4], 1 mM CaCl2), 1 mM MgCl2, and protease inhibitors) for extracting membrane proteins. The nuclei and unbroken cells were removed by centrifugation at 300×g for 5 min, and the supernatant was centrifuged for 20 min at 21,000×g. The pellets were re-suspended and solubilized in immunoprecipitation buffer (50 mM Tris [pH7.4], 250 mM NaCl, 10% glycerol, 0.5% NP-40, 20 mM NaF, 1 mM Na3VO4, 10 mM N-ethylmaleimide, 1 mM phenylmethylsulfonyl fluoride, 2 mM benzamide, and protease inhibitors), and the soluble fraction was incubated at 4° C. overnight with Protein A/G beads ([…], Millipore, Darmstadt, Germany) prebound to mouse anti-GluN1 antibody (#75-272, 1:1000, NeuroMab, Davis, Calif.). Protein A/G beads prebound to mouse IgG were uses as the control. All samples were washed 3 times with immunoprecipitation buffer and then immunoblotted with rabbit anti-α2δ-1 (#ACC-015, 1:500, Alomone Labs, Jerusalem, Israel) and rabbit anti-GluN1 antibodies (#G8913, 1:1,000, Sigma-Aldrich, St. Louis, Mo.). The amount of the α2δ-1-GluN1 protein complex was calculated by normalizing the amount of α2δ-1 to that of GluN1 on the same gel. […]

paclitaxel-treated rats = test: Paclitaxel-induced pain hypersensitivity in rats; format: in vivo, rat; conditions: paclitaxel- vs vehicle-treated rats
Description: as §2
Behavioral assessment of nociception: To measure tactile allodynia, mice or rats were individually placed on a mesh floor within a suspended chamber. […]
To quantify the mechanical nociceptive threshold in rats, the paw pressure (Randall-Selitto) test was conducted on the left hindpaw using an analgesiometer (Ugo Basile, Varese, Italy). […] When the rat withdrew its paw or vocalized, the pedal was immediately released, and the withdrawal threshold was recorded (Chen et al., 2014a). […]
as §1

Chain of presynaptic NMDARs of spinal lamina II neurons (Q00959 20-1464 limits assumed, other chains not shown): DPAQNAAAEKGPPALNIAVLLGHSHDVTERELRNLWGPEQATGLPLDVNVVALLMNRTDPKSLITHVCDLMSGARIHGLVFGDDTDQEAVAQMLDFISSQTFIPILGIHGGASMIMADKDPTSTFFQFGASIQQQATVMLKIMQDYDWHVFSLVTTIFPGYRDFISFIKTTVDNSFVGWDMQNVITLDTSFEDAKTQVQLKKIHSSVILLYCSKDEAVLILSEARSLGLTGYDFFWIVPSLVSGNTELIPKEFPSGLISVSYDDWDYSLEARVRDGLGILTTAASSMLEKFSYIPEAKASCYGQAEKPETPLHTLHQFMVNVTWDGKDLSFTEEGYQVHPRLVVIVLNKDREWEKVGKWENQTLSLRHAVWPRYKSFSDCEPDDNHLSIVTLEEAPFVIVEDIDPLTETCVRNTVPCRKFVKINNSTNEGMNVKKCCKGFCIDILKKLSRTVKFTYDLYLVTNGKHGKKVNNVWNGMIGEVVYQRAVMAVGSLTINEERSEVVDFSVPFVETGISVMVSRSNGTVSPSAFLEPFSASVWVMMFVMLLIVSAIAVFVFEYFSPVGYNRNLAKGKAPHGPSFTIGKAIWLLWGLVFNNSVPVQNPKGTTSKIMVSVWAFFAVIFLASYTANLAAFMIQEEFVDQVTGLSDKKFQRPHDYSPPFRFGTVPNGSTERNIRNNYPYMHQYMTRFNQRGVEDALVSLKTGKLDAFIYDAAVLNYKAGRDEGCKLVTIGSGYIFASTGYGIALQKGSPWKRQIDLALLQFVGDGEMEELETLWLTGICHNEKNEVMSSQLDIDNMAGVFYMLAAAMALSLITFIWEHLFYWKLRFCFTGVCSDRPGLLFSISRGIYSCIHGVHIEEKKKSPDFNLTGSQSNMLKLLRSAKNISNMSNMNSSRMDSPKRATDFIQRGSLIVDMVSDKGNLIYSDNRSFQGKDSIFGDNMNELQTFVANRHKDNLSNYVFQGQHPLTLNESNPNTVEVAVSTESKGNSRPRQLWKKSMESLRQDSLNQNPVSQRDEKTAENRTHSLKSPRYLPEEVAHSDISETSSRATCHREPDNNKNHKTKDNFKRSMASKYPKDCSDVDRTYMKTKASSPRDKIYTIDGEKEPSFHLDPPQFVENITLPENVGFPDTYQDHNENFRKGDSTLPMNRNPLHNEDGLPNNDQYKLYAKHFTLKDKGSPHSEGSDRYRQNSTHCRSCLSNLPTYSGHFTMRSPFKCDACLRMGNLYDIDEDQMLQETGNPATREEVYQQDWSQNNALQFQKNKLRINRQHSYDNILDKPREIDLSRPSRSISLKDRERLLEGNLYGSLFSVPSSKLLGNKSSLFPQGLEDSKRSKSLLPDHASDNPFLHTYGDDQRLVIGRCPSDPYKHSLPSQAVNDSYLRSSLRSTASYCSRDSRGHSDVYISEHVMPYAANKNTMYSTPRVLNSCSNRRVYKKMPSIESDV
Chain of presynaptic NMDARs of spinal lamina II neurons (Q00960 27-1482, other chains not shown): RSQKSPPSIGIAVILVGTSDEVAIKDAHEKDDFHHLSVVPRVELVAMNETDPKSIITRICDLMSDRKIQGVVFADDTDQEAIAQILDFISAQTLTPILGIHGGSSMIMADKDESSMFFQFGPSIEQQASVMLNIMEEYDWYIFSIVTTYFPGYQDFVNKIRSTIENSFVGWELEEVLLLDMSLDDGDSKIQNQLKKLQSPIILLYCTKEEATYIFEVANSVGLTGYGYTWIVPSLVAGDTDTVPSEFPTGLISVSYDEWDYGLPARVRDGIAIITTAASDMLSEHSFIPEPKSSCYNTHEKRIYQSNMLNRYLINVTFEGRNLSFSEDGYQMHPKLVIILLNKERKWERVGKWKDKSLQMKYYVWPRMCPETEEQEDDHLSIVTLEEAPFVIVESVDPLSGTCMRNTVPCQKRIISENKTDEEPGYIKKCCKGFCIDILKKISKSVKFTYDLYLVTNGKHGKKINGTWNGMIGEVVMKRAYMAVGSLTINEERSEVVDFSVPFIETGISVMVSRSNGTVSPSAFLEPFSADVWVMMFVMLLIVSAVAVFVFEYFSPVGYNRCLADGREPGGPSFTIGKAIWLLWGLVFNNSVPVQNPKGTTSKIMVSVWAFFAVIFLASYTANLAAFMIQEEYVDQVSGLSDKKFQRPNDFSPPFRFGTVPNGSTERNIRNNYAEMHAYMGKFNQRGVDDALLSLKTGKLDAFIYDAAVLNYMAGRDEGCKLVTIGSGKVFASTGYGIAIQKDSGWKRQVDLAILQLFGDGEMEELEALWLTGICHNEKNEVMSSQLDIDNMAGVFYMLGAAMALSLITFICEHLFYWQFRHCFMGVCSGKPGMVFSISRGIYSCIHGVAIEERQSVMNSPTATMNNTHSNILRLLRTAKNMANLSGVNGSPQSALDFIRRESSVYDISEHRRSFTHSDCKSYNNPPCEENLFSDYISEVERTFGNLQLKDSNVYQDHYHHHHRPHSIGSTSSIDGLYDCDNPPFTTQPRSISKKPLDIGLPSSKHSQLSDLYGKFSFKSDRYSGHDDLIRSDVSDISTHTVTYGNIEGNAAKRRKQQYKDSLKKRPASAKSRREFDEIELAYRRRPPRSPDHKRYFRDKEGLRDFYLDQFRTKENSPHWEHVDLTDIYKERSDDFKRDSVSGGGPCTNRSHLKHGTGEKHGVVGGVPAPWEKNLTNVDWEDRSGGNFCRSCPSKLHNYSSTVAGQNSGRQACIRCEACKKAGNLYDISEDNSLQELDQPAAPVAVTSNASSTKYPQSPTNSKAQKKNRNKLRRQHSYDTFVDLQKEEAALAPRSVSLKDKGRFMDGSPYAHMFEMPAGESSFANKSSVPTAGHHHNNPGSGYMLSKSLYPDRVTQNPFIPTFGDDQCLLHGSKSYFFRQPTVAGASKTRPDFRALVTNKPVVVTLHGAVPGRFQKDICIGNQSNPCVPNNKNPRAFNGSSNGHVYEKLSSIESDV

- baseline amplitude of evoked monosynaptic EPSCs [1]: significantly larger
- baseline frequency of mEPSCs in lamina II neurons [1]: significantly higher
- paired-pulse ratio (PPR) in lamina II neurons [1]: significantly reduced
- duration of hypersensitivity after the last injection (WT mice): at least 10 days
- mRNA level of α2δ-2 or α2δ-3 in the DRG and dorsal spinal cord (α2δ-1): similar
- α2δ-1-GluN1 complex in the dorsal spinal cord (α2δ-1): significantly higher
- α2δ-1 and GluN1 protein levels in spinal synaptosomes (α2δ-1): significantly higher
- α2δ-1 mRNA levels in the DRG and dorsal spinal cord (α2δ-1): substantially higher
- α2δ-1 protein levels in the DRG and spinal cord (α2δ-1): much higher
- withdrawal thresholds to tactile, noxious pressure and noxious heat stimuli (paclitaxel-treated rats): lower withdrawal thresholds
SMILES: CC(=O)O[C@H]1C(=O)[C@@]2(C)[C@H]([C@H](OC(=O)c3ccccc3)[C@]3(O)C[C@H](OC(=O)[C@H](O)[C@@H](NC(=O)c4ccccc4)c4ccccc4)C(C)=C1C3(C)C)[C@]1(OC(C)=O)CO[C@@H]1C[C@@H]2O [paclitaxel]
- pain hypersensitivity after systemic paclitaxel (WT mice): induced tactile allodynia and heat and cold hyperalgesia
